Each structure is given as a SMILES string.

The target in one test is AKT2 (Homo sapiens, UniProt P31751). Briefly: Inhibition of AKT isoforms, enzyme IC50. Format: biochemical.
Another test relates to T47D cells. The test is described as follows: Roche Cell Death ELISAPlus apoptosis assay in T47D cells (sensitization ratio). The test is classed as cell-based, human. The settings on record: compound at 25 μM, combined with GW589522. How it is done: T47D cells are human breast ductal carcinoma cells originally obtained from the American Type Culture Collection.
(§1) Cell lines were grown in RPMI-1640 supplemented with 25 mM HEPES, 10 mM glutamine and 10% fetal bovine serum and maintained at 37° C. and 5% CO2 in a humid incubator. Assays were performed in 96 well microtiter plates with optimum seeding densities for each cell line.
(§2) Apoptosis was measured using the Roche Cell Death ELISA^Plus kit (catalog 1 774 425) which detects fragmented nucleosomal DNA that is generated during apoptosis.
The expected level of activity (Ae) is calculated by Ae=1−((1−A1)*(1−A2)) (3) where A1 and A2 are the activities of drugs 1 and 2 alone at the concentration used in the combination (Harvey, R. J., J. Theor. Biol. 74: 411-437, 1978).
Apoptosis was measured using the Roche Cell Death ELISA^Plus kit, and the relative percentage of apoptosis was determined for each combination.

A further test has as its system HN5 cells. Briefly: Roche Cell Death ELISAPlus apoptosis assay in HN5 cells (median effect and sensitization ratio analysis). The settings on record: HN5, 5 μM GW589522A 24 h. The test is classed as cell-based. The procedure: HN5 cells are LICR-LON-HN5 head and neck carcinoma cells, which were a gift from the Institute of Cancer Research, Surrey, U.K.
as §1, §2
Synergistic interaction between compounds was analyzed by the median effect method described by Chou and Talalay (Adv. Enzyme Regul. 22: 27-55, 1984). Briefly, if the two compounds fit the mutually exclusive model of Chou, one calculates the combination index (CI) using the formula CI=((D)1/(Dx)1)+((D)2/(Dx)2) (1) where (D)1 is the concentration of drug 1 in the combination that gives “x” percent apoptosis, (D)2 is the same for drug 2, and (Dx)1 and (Dx)2 are the concentrations of drug 1 or 2 that give “x” percent apoptosis when used alone. (D)1 and (D)2 are known from the composition of the combination and (Dx)1 and (Dx)2 can be calculated from the equation Dx=Dm*[fa/(1−fa)]^1/m (2) where Dm is the concentration of drug giving 50% effect, fa is the fraction affected, and m is the slope from the median effect plot of log (fa/fu) where fu is the fraction unaffected versus log (D). A CI less than 1 indicates synergy, equal to 1 indicates additivity and greater than 1 antagonism.
Sensitization is measured as the ratio between observed and expected apoptosis or caspase activation from a combination of AKT kinase inhibitor and EGFR/erb inhibitor. The expected level of activity (Ae) is calculated by Ae=1−((1−A1)*(1−A2)) (3) where A1 and A2 are the activities of drugs 1 and 2 alone at the concentration used in the combination (Harvey, R. J., J. Theor. Biol. 74: 411-437, 1978).

Another test deals with AKT1 (Homo sapiens, UniProt P31749). Briefly: Inhibition of AKT isoforms, enzyme IC50. The test is classed as biochemical.
AKT1, sequence (P31749 whole entry, species assumed, canonical isoform): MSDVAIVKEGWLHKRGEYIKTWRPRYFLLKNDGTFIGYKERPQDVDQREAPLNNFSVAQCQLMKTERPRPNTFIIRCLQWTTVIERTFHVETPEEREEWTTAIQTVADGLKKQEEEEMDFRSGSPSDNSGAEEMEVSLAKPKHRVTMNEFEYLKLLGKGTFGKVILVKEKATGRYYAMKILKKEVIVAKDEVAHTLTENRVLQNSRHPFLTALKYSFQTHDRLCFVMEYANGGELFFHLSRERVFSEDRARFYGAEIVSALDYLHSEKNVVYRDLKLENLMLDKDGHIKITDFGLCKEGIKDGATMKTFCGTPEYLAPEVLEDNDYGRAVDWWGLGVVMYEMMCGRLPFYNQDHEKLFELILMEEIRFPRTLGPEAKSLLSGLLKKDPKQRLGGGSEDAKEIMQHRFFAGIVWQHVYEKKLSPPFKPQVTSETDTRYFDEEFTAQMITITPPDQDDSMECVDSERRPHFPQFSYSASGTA
Another test concerns the target AKT3 (Homo sapiens, UniProt Q9Y243). The test is described as follows: Inhibition of AKT isoforms, enzyme IC50. Format: biochemical.

AKT3, sequence (Q9Y243 whole entry, species assumed, canonical isoform): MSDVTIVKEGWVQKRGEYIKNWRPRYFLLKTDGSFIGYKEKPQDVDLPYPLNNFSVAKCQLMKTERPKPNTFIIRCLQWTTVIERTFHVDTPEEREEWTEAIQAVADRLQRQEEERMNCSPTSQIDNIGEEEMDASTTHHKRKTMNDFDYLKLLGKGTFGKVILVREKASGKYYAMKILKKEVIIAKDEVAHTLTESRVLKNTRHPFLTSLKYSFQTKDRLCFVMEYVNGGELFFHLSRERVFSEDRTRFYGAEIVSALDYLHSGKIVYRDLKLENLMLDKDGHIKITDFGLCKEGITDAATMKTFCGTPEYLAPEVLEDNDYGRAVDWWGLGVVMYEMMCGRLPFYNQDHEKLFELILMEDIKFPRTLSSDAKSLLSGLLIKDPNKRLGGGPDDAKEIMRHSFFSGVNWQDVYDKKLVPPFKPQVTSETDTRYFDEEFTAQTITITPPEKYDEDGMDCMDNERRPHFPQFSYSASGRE
AKT2, sequence (P31751 whole entry, species assumed, canonical isoform): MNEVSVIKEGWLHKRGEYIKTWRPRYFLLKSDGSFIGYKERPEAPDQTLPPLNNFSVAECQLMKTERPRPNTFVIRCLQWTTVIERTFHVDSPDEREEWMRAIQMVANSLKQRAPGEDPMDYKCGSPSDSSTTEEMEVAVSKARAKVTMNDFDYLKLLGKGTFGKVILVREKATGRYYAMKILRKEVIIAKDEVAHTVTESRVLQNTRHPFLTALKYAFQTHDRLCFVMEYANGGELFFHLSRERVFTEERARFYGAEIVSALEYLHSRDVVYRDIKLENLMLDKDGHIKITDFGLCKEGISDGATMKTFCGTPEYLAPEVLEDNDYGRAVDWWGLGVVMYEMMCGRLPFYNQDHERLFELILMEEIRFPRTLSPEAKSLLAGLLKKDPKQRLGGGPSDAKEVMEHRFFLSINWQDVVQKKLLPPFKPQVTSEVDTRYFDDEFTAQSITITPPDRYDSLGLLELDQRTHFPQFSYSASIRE

A word on the IC50: it is the concentration that gives 50% inhibition. Read a high IC50 as weaker potency. Turning to `Nc1nonc1-c1nc2c(-c3cccc(Cl)c3)ncc(C(=O)NCCNCc3ccccc3)c2n1CC1CC1.O=C(O)C(F)(F)F` [Ex 8, 2-(4-amino-1,2,5-oxadiazol-3-yl)-4-(3-chlorophenyl)-1-(cyclopropylmethyl)-N-{2-[(phenylmethyl)amino]ethyl}-1H-imidazo[4,5-c]pyridine-7-carboxamide, trifluoroacetate salt], the 50% inhibitory concentration (IC50) came to 7940 nM at AKT2, 8320 nM at AKT1 and 450 nM against AKT3. Moreover, the “SR (sensitization ratio)” value with T47D cells came out at 7.1. In the test on HN5 cells (then compound 25 μM 4 h), the “Sensitization Ratio in HN5 with 5 μM GW589522A” value (“Sensitization Ratio in HN5” for short) is reported as 27 @ 25.
Regarding `CCn1c(-c2nonc2N)nc2c(-c3cccc(Cl)c3)ncc(OCC3CCNCC3)c21.O=C(O)C(F)(F)F` [Ex 11, 4-{4-(3-chlorophenyl)-1-ethyl-7-[(4-piperidinylmethyl)oxy]-1H-imidazo-[4,5-c]pyridin-2-yl}-1,2,5-oxadiazol-3-amine trifluoroacetate], the IC50 against AKT2 came out at 20 nM; on AKT1, 30 nM; against AKT3, 10 nM. In addition, the “Sensitization Ratio in HN5” value in the test with HN5 cells (then compound 2.5 μM 4 h) was 20 @ 2.5; in the test on HN5 cells (then compound 5 μM 4 h), 25 @ 5.
As for `CCn1c(-c2nonc2N)nc2c(-c3cccc(Cl)c3)ncc(OCCCCN)c21.O=C(O)C(F)(F)F` [Ex 12, 4-[7-[(4-aminobutyl)oxy]-4-(3-chlorophenyl)-1-ethyl-1H-imidazo-[4,5-c]pyridin-2-yl]-1,2,5-oxadiazol-3-amine trifluoroacetate], the concentration for half-maximal inhibition (IC50) on AKT2 was found to be 40 nM; against AKT1 it was 40 nM; against AKT3 it was 10 nM. Besides, in the test with HN5 cells (then compound 25 μM 4 h), the “Sensitization Ratio in HN5” value is 3.6 @ 25.
As for `CCn1c(-c2nonc2N)nc2c(-c3ccccc3)ncc(OCCCN)c21.O=C(O)C(F)(F)F` [Ex 13, 4-{7-[(3-aminopropyl)oxy]-1-ethyl-4-phenyl-1H-imidazo[4,5-c]pyridin-2-yl}-1,2,5-oxadiazol-3-amine trifluoroacetate], the results for the IC50 on AKT2, against AKT1 and at AKT3 were 20 nM, 40 nM and 10 nM, respectively. For the same compound, the “Sensitization Ratio in HN5” value with HN5 cells (then compound 5 μM 4 h) is listed as 12 @ 5.
With `CCn1c(-c2nonc2N)nc2cncc(OCC3CCNCC3)c21` [Ex 14, 4-[1-Ethyl-7-(piperidin-4-ylmethoxy)-1H-imidazo[4,5-c]pyridin-2-yl]-furazan-3-ylamine], the IC50 against AKT2 came to 270 nM; on AKT1 it was 70 nM; against AKT3, 510 nM. Further, in the test with HN5 cells (then compound 4 h, concentration not given), the “Sensitization Ratio in HN5” value is given as 4.5 @.

The values above are taken from patent publication US20070161665A1, “Cancer treatment method” (priority 2003, published 2007).
